From ChEMBL document CHEMBL1201862, “PubChem BioAssay data set” (2004) come the findings set out here.

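Five compound concentrations were applied to cells in 96-well plates for 48 hours; endpoints were derived by simple linear interpolation of the resulting dose-response curve. GI50: concentration for 50% inhibition of growth.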 The source made the active and inactive calls. Rule as the data show it: active = GI50 up to about 1.1 µM and inactive = higher.

What all share (assay): NCI-60 cell line screen, 48 h
Test [1] concerns A498.
The subject of test [2] is A549.
In test [3] the test system is DMS-273.
The test system of test [4] is EKVX.
Test [5] relates to HCC 2998.
Test [6] concerns HL-60.
The subject of test [7] is HOP-92.
Test [8] concerns HT-29.
For test [9], the system named is KM12.
Test [10] relates to MOLT-4.
For test [11], the system named is SF-268.
Test [12] deals with SF-539.
Test [13] deals with SK-MEL-28.
Test [14] has as its system UACC-62.
Test [15] concerns LOX IMVI.
For test [16], the system named is SNB-75.

Turning to `O=C1OC(=O)C2C3CCC(O3)C12` (configuration not stated), the GI50 in test [1], in test [2], in test [3], in test [4], in test [5] and in test [6] was > 100 µM (inactive) each time. Besides, the GI50 in test [7], in test [8], in test [9], in [10], in test [11] and in [12] was > 100 µM (inactive) in each case. In addition, the GI50 in [13] and in test [14] was > 100 µM (inactive) throughout.

On to `COC(=O)C(CCCC1(c2ccccc2)OCCO1)C(C)=O` (configuration not stated), for which the GI50 in test [1], in test [2], in test [3], in test [4], in test [5] and in [6] was > 100 µM (inactive) each time. Further, the GI50 in test [8], in test [9], in test [15], in test [10], in test [11] and in [12] was > 100 µM (inactive) throughout. Moreover, the GI50 in test [13] was > 100 µM (inactive); in [16], 30.2 µM (inactive).

For `Nc1nc(N)c(N=O)c(Nc2ccc(Br)cc2)n1`, the GI50 in [1] was 17.6 µM (inactive); in test [2], 41.9 µM (inactive); in [3], 17.5 µM (inactive); in [4], 40.8 µM (inactive); in test [5] it was 78.9 µM (inactive); in test [6] it was > 100 µM (inactive). Moreover, the GI50 in test [7] was 15.4 µM (inactive); in test [8] it was 15.8 µM (inactive); in test [9], 33.8 µM (inactive); in [15] it was 18.2 µM (inactive); in [11], 12.9 µM (inactive); in test [12] it was 16.9 µM (inactive). The GI50 in test [13] was 16.6 µM (inactive); in [16] it was 10.4 µM (inactive); in [14], 5.5 µM (inactive).

As to `COC1OC(C)C(OC(=O)C(C)(C)C)C(C)(O)C1O` (configuration not stated), the GI50 in test [1], in test [2], in [3], in test [5], in [6] and in test [7] was > 100 µM (inactive) throughout. Further, the GI50 in test [8], in test [9], in test [15], in test [10], in [11] and in [12] was > 100 µM (inactive) throughout. For the same compound, the GI50 in test [13] and in test [14] was > 100 µM (inactive) throughout.

`CC1=NN=C(NCCN(C)C)C/C1=C/c1ccccc1Cl`: the GI50 was > 100 µM (inactive) in test [1]; > 100 µM (inactive) in test [2]; > 100 µM (inactive) in [3]; > 100 µM (inactive) in test [4]; > 100 µM (inactive) in test [5]; 45.1 µM (inactive) in test [8]. Further, the GI50 was > 100 µM (inactive) in [9]; 90.6 µM (inactive) in [15]; > 100 µM (inactive) in test [11]; > 100 µM (inactive) in test [12]; 59.2 µM (inactive) in test [13]; 20 µM (inactive) in test [16]. In test [14], the GI50 was > 100 µM (inactive).

As to `C=CCOC(C)n1c(C)cc(=O)n(C(C)OCC=C)c1=O` (configuration not stated), the GI50 in test [1], in [2], in test [3], in [4], in test [5] and in test [6] was > 100 µM (inactive) in each case. The GI50 was 72.1 µM (inactive) in test [7]; > 100 µM (inactive) in test [8]; > 100 µM (inactive) in test [10]; > 100 µM (inactive) in test [11]; > 100 µM (inactive) in test [12]; > 100 µM (inactive) in test [13]. The GI50 in test [16] and in test [14] was > 100 µM (inactive) each time.

Turning to `Cc1nc2c(n1CC(C)C)C(=O)c1ccccc1C2=O`, the GI50 was 32.9 µM (inactive) in test [2]; 26.8 µM (inactive) in test [3]; 38 µM (inactive) in test [4]; 71.4 µM (inactive) in test [5]; 23 µM (inactive) in test [6]; 10.4 µM (inactive) in test [7]. Further, the GI50 in test [8] was 34 µM (inactive); in test [9], 37.9 µM (inactive); in test [15] it was 29.3 µM (inactive); in test [10], 38.6 µM (inactive); in [11], 42.8 µM (inactive); in test [12] it was 24.8 µM (inactive). Also, the GI50 is 67.9 µM (inactive) in test [13], 42.8 µM (inactive) in test [16] and 20.7 µM (inactive) in [14].

Turning to `COC(=O)C(CC(C)=O)CS(=O)(=O)CC(=O)C(=O)Nc1cccc([N+](=O)[O-])c1` (configuration not stated), the GI50 in test [1], in test [2], in test [3], in test [4], in [5] and in test [7] was > 100 µM (inactive) in each case. The GI50 in test [9], in [15], in test [11], in test [12], in test [13] and in [16] was > 100 µM (inactive) throughout. Further, the GI50 in [14] was > 100 µM (inactive).

As to `COc1ccc(C(=O)C(c2ccc(OC)cc2)C2(O)C(=O)Nc3c(Cl)cc(Cl)cc32)cc1` (configuration not stated), the GI50 in test [2] is 24.2 µM (inactive); in [3] it was 16.3 µM (inactive); in test [4], 18.7 µM (inactive); in test [5], > 10 µM (inactive); in test [6] it was 4.68 µM (inactive); in test [7] it was 15.3 µM (inactive). Besides, the GI50 in [8] was 19.4 µM (inactive); in [9] it was 17.8 µM (inactive); in test [15], 19.3 µM (inactive); in test [10], 9.35 µM (inactive); in [11], 33.8 µM (inactive); in test [13] it was 22.3 µM (inactive). Besides, the GI50 in [16] is 22.9 µM (inactive).

On to `CS/C(=N\C(=S)Nc1ccccc1)Nc1ccccc1`, for which the GI50 in [1] was 21.9 µM (inactive); in [2] it was 16.5 µM (inactive); in test [3] it was > 10 µM (inactive); in [4], > 10 µM (inactive); in test [5], 21.7 µM (inactive); in [6], 10.6 µM (inactive). Further, the GI50 in test [8] was 6.37 µM (inactive); in [9] it was 25.6 µM (inactive); in test [15], 16.7 µM (inactive); in test [10], 12.9 µM (inactive); in test [11], 25.6 µM (inactive); in test [12], > 10 µM (inactive). For the same compound, the results for the GI50 in test [13], in [16] and in test [14] were 15 µM (inactive), 16.3 µM (inactive) and 4.58 µM (inactive), respectively.

Take `O=C1C=C(c2c(O)ccc3ccccc23)c2cc(O)ccc2C1=O`: the GI50 in test [2] is 18.2 µM (inactive); in test [3] it was 15.3 µM (inactive); in test [4], 21.2 µM (inactive); in test [5] it was 18.6 µM (inactive); in test [6] it was 2.02 µM (inactive); in test [7], 16.1 µM (inactive). Further, the GI50 was 25.3 µM (inactive) in test [8]; 16.1 µM (inactive) in [9]; 11.5 µM (inactive) in test [15]; 3.09 µM (inactive) in test [10]; 16.3 µM (inactive) in test [11]; 16.2 µM (inactive) in test [12]. The GI50 is 20.7 µM (inactive) in test [13], 25.4 µM (inactive) in [16] and 4.43 µM (inactive) in test [14].

As for `CC(C(=O)n1c2ccccc2c2ccccc21)N(c1ccccc1)c1ccccc1` (configuration not stated), the GI50 in test [2] was 20.4 µM (inactive); in [3], 18.7 µM (inactive); in test [4], 19.4 µM (inactive); in test [5] it was 16.3 µM (inactive); in test [6], 4.46 µM (inactive); in [8] it was 19.5 µM (inactive). In addition, the GI50 was 16.7 µM (inactive) in [15]; 11 µM (inactive) in test [10]; 19.3 µM (inactive) in test [11]; 19.2 µM (inactive) in test [12]; 19.1 µM (inactive) in test [13]; 20.2 µM (inactive) in test [16]. The GI50 in [14] is 17.6 µM (inactive).

Turning to `Cc1ccc(C)c(N2C(=O)C(=O)C(c3nc4ccccc4o3)/C(=N/N)C2=O)c1` (configuration not stated), the GI50 in test [1], in test [2], in test [3], in [4], in [5] and in test [6] was > 100 µM (inactive) throughout. For the same compound, the GI50 in [7], in [8], in test [9], in [10], in test [11] and in [12] was > 100 µM (inactive) each time. The GI50 in [13] is > 100 µM (inactive); in [16], 95.7 µM (inactive); in test [14] it was > 100 µM (inactive).

With `COc1cc(/C=C\c2ccc(OC(C)=O)cc2)cc(OC)c1OC`, the GI50 is 22.4 µM (inactive) in test [1]; 6.62 µM (inactive) in test [2]; 0.887 µM (active) in test [3]; 10 µM (inactive) in [4]; 8.13 µM (inactive) in [5]; 20 µM (inactive) in [7]. Besides, the GI50 in [8] is 10.8 µM (inactive); in test [9] it was 2.21 µM (inactive); in test [10], 3.78 µM (inactive); in test [11], 9.59 µM (inactive); in test [12], 2.26 µM (inactive); in [13], 1.44 µM (inactive). Besides, the values for the GI50 in [16] and in test [14] were 2.2 µM (inactive) and 4.85 µM (inactive), respectively.
